Test results from patent US5709864A, “Cosmetic or pharmaceutical and particularly dermatological, composition containing an extract of tephrosia, particularly Tephrosia purpurea” (priority 1993, dated 1998).

Test system: adenylate cyclase
Experiment: stimulation of adenylate cyclase activity in purified fibroblast (3T3 F442A) cell membranes, AMPc measured by radioimmunoassay
Format: biochemical, mouse
Conditions: at 0.05 g/l, 37° C., 3T3 F442A fibroblast membranes; basal activity without effector = 100%
Protocol: Cell membranes are initially obtained by culturing to confluence fibroblasts of the 3T3 F442A line commercially available from Flow Laboratories.
These fibroblast cell membranes which constitute an enzyme source, are incubated in a reaction medium in the presence of ATP at 37° C. for a predefined length of time.
The resulting AMPc is measured by radioimmunoassay. Taking the basal activity, i.e. activity without an effector, as being 100%, it is possible to determine the influence of an effector on the enzyme system.
Cell membranes are purified from the fibroblast in culture.
In this context, it should be observed that purification of cell membranes releases numerous enzymes into the assay medium. Two of these enzymes are undesirable in implementing the test. They comprise firstly Na^+, K^+ ATPase which transform ATP into adenosine diphosphate, and secondly phosphodiesterase 3',5'-AMPc which degrades cyclic AMP into AMP. Thus, in order to obtain reliable results from the test, it is essential to inhibit those two enzymes. The first is inhibited by means of ouabain, and the second by means of theophylline.
The reaction medium is thus constituted by:
50 μl of a 5 mM solution of […] (ATP) as substrate;
100 μl of a 20 mM solution of ouabain as an inhibitor of ATPase;
100 μl of a 20 mM solution of theophylline as an inhibitor of phosphodiesterase; and […]

Structure (SMILES): C=C[C@@]1(C)CC(=O)[C@]2(O)[C@@]3(C)[C@@H](O)CCC(C)(C)[C@@H]3[C@H](O)[C@H](OC(C)=O)[C@@]2(C)O1 [forskoline]
- % activity (adenylate cyclase; basal activity = 100): 225%
